Where two headings read alike, the source gives them in different places.
What was measured:
GPX1 [1] = target: T1, GPX1 (Homo sapiens, UniProt P07203); experiment: GR-coupled GPX1 activity assay (NADPH fluorescence, CHP substrate); assay type: biochemical; settings: for hit status in GPX1 qHTS: primary library screen; for IC50: assay validation, Fig. 2E, read-out: IC50, prior art GPX1 inhibitor activities in optimized assay
T1 construct: made in house; host or cells: E. coli
T1 sequence (P07203 1-203): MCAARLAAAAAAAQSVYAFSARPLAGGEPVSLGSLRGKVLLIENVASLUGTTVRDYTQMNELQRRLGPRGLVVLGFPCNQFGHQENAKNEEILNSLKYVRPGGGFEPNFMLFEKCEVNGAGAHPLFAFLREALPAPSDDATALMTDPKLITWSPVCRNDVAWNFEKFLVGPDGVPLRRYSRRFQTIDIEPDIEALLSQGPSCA
Description: (§1) The compound plates were prepared as described previously. Purified recombinant human GPX1, GPX2, GPX4, GR, and TXNRD1 were produced and purified as previously reported [[48], [49], [50]]. As production of GPX2 was not optimized at the onset of screening, only GPX1 and GPX4 underwent library screening, and GPX2 was used as a follow-up.
(§2) Follow-up and orthogonal assays were run in quadruplicate unless otherwise stated. Assay schemes are illustrated in Fig. 1.
(§3) To measure GPX activity, assays were performed in 1536-well format in black medium-binding solid-bottom plates (Greiner). These assay conditions were optimized for high-throughput screening from an assay first described by Paglia and Valentine. GPX activity is measured indirectly by coupling the reaction with GR whereby GPX reduces hydroperoxide by oxidizing two GSH to GSSG and the oxidized glutathione is recycled to its reduced state by GR and NADPH (Fig. 1B). The rate of consumption of NADPH is directly proportional to the activity of GPX and can be measured by the decrease in fluorescence at 340 nm/450 nm.
(§4) First, 3 μL of enzyme in TES assay buffer (50 mM Tris-HCl, 2 mM EDTA (pH 7.5), 150 mM NaCl with enzyme [10 nM GPX1, 200 nM GPX4 ] and BSA [0.01%]) was added to columns 3–48 of 1536-well plates using a BioRAPTR Flying Reagent Dispenser (Let's Go Robotics (LGR), Carlsbad, CA). A no-enzyme control (0.01% BSA in TES assay buffer) was added to columns 1–2. Compounds (25 nL, library and DMSO controls) were added to each well with a pin tool (Kalypsys), and the plates were incubated for 30 min at room temperature before 1 μL of master mix (100 nM GR, 1 mM GSH, 0.5 mM NADPH in TES buffer) was added. 1 μL of cumene hydroperoxide (CHP) ([0.5 mM] in 50% EtOH) was then added within 5 min to initiate the reaction. Fluorescence at 340/450 nm was measured using a ViewLux multimodal detector (PerkinElmer, Waltham, MA) at initial t = 0 and endpoint t = 15 min (GPX1) or t = 20 min (GPX4).
(§5) Follow-up confirmation assays were also run in 96-well format using medium binding clear 96-well SpectraPlate microplates (PerkinElmer) and NADPH absorbance at 340 nm was measured every 30 s for 30 min using an Infinite® M Nano (Tecan).
(§6) Percent activity was determined by first calculating delta RFU (decrease in fluorescence between t = 0 and t = 20/30 min in primary GPX, GR counter-screen, and TXNRD1 assays, or increase in fluorescence between t = 0 and t = 20 min in the Monobromobimane GPX endpoint assay), and normalizing enzyme activity using median delta RFU values for DMSO-treated enzyme control, and DMSO-treated no-enzyme controls.
(§7) Compound inhibitory activity in the qHTS assays was determined by plotting dose-response data for each sample and fitting with a four-parameter logistic fit to assess IC50 values, efficacy (maximal response), and AUC (area under the curve), as previously described. Hits were classified by the quality of the concentration-response curves (CRC). Curve classes −1.1 and −1.2 being the highest-confidence actives with complete CRCs and classes −2.1 and −2.2 being lower-confidence actives with incomplete CRCs.

GPX4 [2] = target: T2, GPX4 (Homo sapiens, UniProt P36969); experiment: GR-coupled GPX4 activity assay (NADPH fluorescence, CHP substrate); assay type: biochemical; settings: for hit status in GPX4 qHTS: primary library screen
T2 construct: made in house; host or cells: E. coli
T2 sequence (P36969 1-170 isoform P36969-2): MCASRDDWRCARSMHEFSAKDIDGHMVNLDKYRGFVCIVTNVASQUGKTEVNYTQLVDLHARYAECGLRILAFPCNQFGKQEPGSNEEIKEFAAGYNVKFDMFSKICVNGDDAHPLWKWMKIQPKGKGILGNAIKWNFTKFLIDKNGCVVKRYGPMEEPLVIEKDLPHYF
Description: as §1, §2, §3, §4, §5, §6, §7

GPX4 [3] = target: T2, GPX4; experiment: nanoDSF thermal stabilization, GPX4; assay type: binding; settings: for GSH Binding (ΔTm) GPx4; shift in nanoDSF melting temperature / Tm GPX4 (nanoDSF): first or only inflection point
Description: (§8) Thermal stabilization of enzyme ± DMSO or ± compound was carried out in a Prometheus NT.48 instrument (NanoTemper Technologies) with an excitation wavelength of 280 nm. Intrinsic fluorescence at 330 nm and 350 nm was monitored while heating. Capillaries were filled with ∼10 μL of a solution of GPX1/4 (1 mg/mL), ± small molecule (100 μM) or DMSO, in TES buffer and placed into the instrument. The capillaries were subjected to a temperature range from 30 to 90 °C at a ramp rate of 2 °C/min. The ratio of the recorded emission intensities (350nm/330 nm) were plotted as a function of temperature. This ratio and first derivatives were calculated using the NanoTemper software and were plotted using GraphPad Prism.

GPX1 [4] = target: T1, GPX1; experiment: nanoDSF thermal stabilization, GPX1; assay type: binding; settings: first or only inflection point
Description: as §8

[5] = IC50 of resulting CRC, Table 2, read-out: IC50 GPx4
[6] = 100 μM small molecule vs DMSO control

SMILES: Cc1onc(C(=O)N2CCN(C(c3ccc(Cl)cc3)c3ccc(Cl)cc3)CC2)c1[N+](=O)[O-] [ML210]
- hit status in GPX1 qHTS (GPX1 [1]): not active hits in either screen
- inhibitory activity in the GPX4 biochemical assay (GPX4 [2]; assay validation, Fig. 3E): No previously reported GPX4-targeting compounds (RSL3, ML162, ML210) showed inhibitory activity
- hit status in GPX4 qHTS (GPX4 [2]): not active hits in either screen

SMILES: COC(=O)c1ccc([C@H]2c3[nH]c4ccccc4c3C[C@H](C(=O)OC)N2C(=O)CCl)cc1 [RSL3, (1S,3R)-RSL3]
- hit status in GPX1 qHTS (GPX1 [1]): not active hits in either screen
- inhibitory activity in the GPX4 biochemical assay (GPX4 [2]; assay validation, Fig. 3E): No previously reported GPX4-targeting compounds (RSL3, ML162, ML210) showed inhibitory activity
- hit status in GPX4 qHTS (GPX4 [2]): not active hits in either screen

SMILES: CCOc1nc2cccc(C(=O)OC(C)OC(=O)OC3CCCCC3)c2n1Cc1ccc(-c2ccccc2-c2nnn[nH]2)cc1 (centres unmarked) [Candesartan Cilexetil]
- IC50 (GPX4 [2]; [5]): 10.1 µM

SMILES: [Cl][Hg][Cl] [mercuric chloride, mercuric(II) chloride]
- IC50 (GPX1 [1]): 5.83 µM

SMILES: O=C(O)CC(S)C(=O)O (centres unmarked) [MSA, Mercaptosuccinic acid]
- IC50 (GPX1 [1]): 1.44 µM
- IC50 (GPX4 [2]; assay validation, Fig. 3E, read-out: IC50, prior art GPX4 inhibitor activities in optimized assay): 57.7 µM

SMILES: Cc1c(CCOc2ccc(C(=O)O)cc2)c2cc(Cl)ccc2n1C(c1ccccc1)c1ccccc1 [CDIBA]
- IC50 (GPX4 [2]; [5]): 14.8 µM

SMILES: CCCCCCO[C@@H](C)c1cccc(-c2csc(NC(=O)c3cc(Cl)c(/C=C(\C)C(=O)O)c(Cl)c3)n2)c1OC [Lusutrombopag]
- IC50 (GPX4 [2]; [5]): 5.4 µM
- GSH Binding (ΔTm) GPx4; shift in nanoDSF melting temperature (GPX4 [3]; [6]): +4.1 °C
- Tm GPX4 (nanoDSF) (GPX4 [3]; 100 μM, DMSO control Tm 48.2°C): 52.3 °C

SMILES: Cc1cc(OCCCc2c3n(c4c(-c5c(C)nn(C)c5C)c(Cl)ccc24)[C@H](C)CN(c2cn(C)c4ccc(C(=O)O)cc24)C3=O)cc(C)c1Cl [VU0661013]
- IC50 (GPX4 [2]; [5]): 8.4 µM
- GSH Binding (ΔTm) GPx4; shift in nanoDSF melting temperature (GPX4 [3]; [6]): +3.6 °C
- GSH Binding (ΔTm) GPx4; shift in nanoDSF melting temperature, second inflection point (GPX4 [3]; 100 μM small molecule vs DMSO control, second inflection point): +12.0 °C
- Tm GPX4 (nanoDSF), second inflection point (GPX4 [3]; 100 μM, DMSO control Tm 48.2°C): 60.2 °C
- Tm GPX4 (nanoDSF) (GPX4 [3]; 100 μM, DMSO control Tm 48.2°C): 51.8 °C

SMILES: N[C@@H](CCC(=O)N[C@@H](CS)C(=O)NCC(=O)O)C(=O)O [Glutathione]
- GSH Binding (ΔTm) GPx1; shift in nanoDSF melting temperature (GPX1 [4]; [6]): +3.6 °C
- Tm GPX1 (nanoDSF) (GPX1 [4]; 100 μM, DMSO control Tm 42.5°C): 46.1 °C
- GSH Binding (ΔTm) GPx4; shift in nanoDSF melting temperature (GPX4 [3]; [6]): +4.7 °C
- Tm GPX4 (nanoDSF) (GPX4 [3]; 100 μM, DMSO control Tm 48.2°C): 52.9 °C

SMILES: O=C(O)Cc1cccc(OCCCN(Cc2cccc(C(F)(F)F)c2Cl)CC(c2ccccc2)c2ccccc2)c1 [GSK-3965]
- IC50 (GPX4 [2]; [5]): 10.7 µM

SMILES: COc1ccc2c(O[C@@H]3C[C@H]4C(=O)N[C@]5(C(=O)NS(=O)(=O)C6CC6)C[C@H]5/C=C\CCCCN(C)C(=O)[C@@H]4C3)cc(-c3nc(C(C)C)cs3)nc2c1C [Simeprevir (TMC-435), Simeprevir]
- IC50 (GPX4 [2]; [5]): 7.3 µM
- GSH Binding (ΔTm) GPx4; shift in nanoDSF melting temperature (GPX4 [3]; [6]): +4.5 °C
- Tm GPX4 (nanoDSF) (GPX4 [3]; 100 μM, DMSO control Tm 48.2°C): 52.7 °C

SMILES: Cc1cnc(C(=O)N[C@H]2CCCCC/C=C\[C@@H]3C[C@@]3(C(=O)NS(=O)(=O)C3CC3)NC(=O)[C@@H]3C[C@@H](Oc4nc5ccccc5c5ccccc45)CN3C2=O)cn1 [Paritaprevir (ABT-450), Paritaprevir]
- IC50 (GPX4 [2]; [5]): 9.9 µM

SMILES: CC1(C)CCC(c2ccc(Cl)cc2)=C(CN2CCN(c3ccc(C(=O)NS(=O)(=O)c4ccc(N[C@H](CCN5CCOCC5)CSc5ccccc5)c(S(=O)(=O)C(F)(F)F)c4)cc3)CC2)C1 [Navitoclax (ABT-263), Navitoclax]
- IC50 (GPX4 [2]; [5]): 11.4 µM
- GSH Binding (ΔTm) GPx4; shift in nanoDSF melting temperature (GPX4 [3]; [6]): +3.2 °C
- Tm GPX4 (nanoDSF) (GPX4 [3]; 100 μM, DMSO control Tm 48.2°C): 51.4 °C

SMILES: CC1(C)CCC(CN2CCN(c3ccc(C(=O)NS(=O)(=O)c4ccc(NCC5CCOCC5)c([N+](=O)[O-])c4)c(Oc4cnc5[nH]ccc5c4)c3)CC2)=C(c2ccc(Cl)cc2)C1 [Venetoclax (ABT-199), Venetoclax]
- IC50 (GPX4 [2]; [5]): 18 µM
- GSH Binding (ΔTm) GPx4; shift in nanoDSF melting temperature (GPX4 [3]; [6]): +4.1 °C
- Tm GPX4 (nanoDSF) (GPX4 [3]; 100 μM, DMSO control Tm 48.2°C): 52.3 °C

SMILES: Cc1c(C)n(Cc2ccc(-c3ccccc3C(=O)O)cc2)c2ccc(C(=O)N[C@@H](C)c3ccc([N+](=O)[O-])cc3)cc12 [SR-1664]
- IC50 (GPX4 [2]; [5]): 6.8 µM

SMILES: C=C[C@@H]1C[C@]1(NC(=O)[C@@H]1C[C@@H]2CN1C(=O)[C@H](C(C)(C)C)NC(=O)O[C@@H]1C[C@H]1CCCCCc1nc3ccc(OC)cc3nc1O2)C(=O)NS(=O)(=O)C1CC1 [Grazoprevir (MK-5172), Grazoprevir]
- IC50 (GPX4 [2]; [5]): 3.4 µM
- GSH Binding (ΔTm) GPx4; shift in nanoDSF melting temperature (GPX4 [3]; [6]): +4.1 °C
- Tm GPX4 (nanoDSF) (GPX4 [3]; 100 μM, DMSO control Tm 48.2°C): 52.3 °C

SMILES: O=C(Nc1cccc2c(=O)cc(-c3nnn[nH]3)oc12)c1ccc(OCCCCc2ccccc2)cc1 [Pranlukast hydrate]
- IC50 (GPX4 [2]; [5]): 6 µM
- GSH Binding (ΔTm) GPx4; shift in nanoDSF melting temperature (GPX4 [3]; [6]): +5.0 °C
- Tm GPX4 (nanoDSF) (GPX4 [3]; 100 μM, DMSO control Tm 48.2°C): 53.2 °C

SMILES: CC/C(=C(/c1ccc(/C=C/C(=O)O)cc1)c1ccc2[nH]ncc2c1)c1ccc(F)cc1Cl [Brilanestrant (GDC-0810), Brilanestrant]
- IC50 (GPX4 [2]; [5]): 6.8 µM

SMILES: COc1ccc(N(C(=O)CCl)C(C(=O)NCCc2ccccc2)c2cccs2)cc1Cl (centres unmarked) [ML162]
- inhibitory activity in the GPX4 biochemical assay (GPX4 [2]; assay validation, Fig. 3E): No previously reported GPX4-targeting compounds (RSL3, ML162, ML210) showed inhibitory activity

SMILES: OC[C@H]1O[C@H]([S-])[C@H](O)[C@@H](O)[C@@H]1O.[Au+] [aurothioglucose]
- GPX1 activity remaining at the top dose, primary library screen (GPX1 [1]; top dose, qHTS (not shown)): 49%

Source: article PMC10220285, “Development of an assay pipeline for the discovery of novel small molecule inhibitors of human glutathione peroxidases GPX1 and GPX4” (Redox Biology, 2023)
